Patent US11478558B2, “Prostate-specific membrane antigen targeted high-affinity agents for endoradiotherapy of prostate cancer” (The Johns Hopkins University, priority 2017, dated 2022)
Where two headings read alike, the source gives them in different places.

Experiments:
[1] = tested on: PSMA(+) PC3 PIP cells; test: Cell uptake, cell surface binding and internalization in PSMA(+) PC3 PIP cells; type: cell-based, human; conditions: for Blockade PC3 PIP: ZJ43 10 μM; for total uptake within the PSMA(+) PC3 PIP cells: 1 h to 24 h
[2] = molecular target: PSMA (Homo sapiens (Human), UniProt Q04609); test: PSMA binding affinity; conditions: Table 6, given as range
PSMA, sequence (Q04609 whole entry): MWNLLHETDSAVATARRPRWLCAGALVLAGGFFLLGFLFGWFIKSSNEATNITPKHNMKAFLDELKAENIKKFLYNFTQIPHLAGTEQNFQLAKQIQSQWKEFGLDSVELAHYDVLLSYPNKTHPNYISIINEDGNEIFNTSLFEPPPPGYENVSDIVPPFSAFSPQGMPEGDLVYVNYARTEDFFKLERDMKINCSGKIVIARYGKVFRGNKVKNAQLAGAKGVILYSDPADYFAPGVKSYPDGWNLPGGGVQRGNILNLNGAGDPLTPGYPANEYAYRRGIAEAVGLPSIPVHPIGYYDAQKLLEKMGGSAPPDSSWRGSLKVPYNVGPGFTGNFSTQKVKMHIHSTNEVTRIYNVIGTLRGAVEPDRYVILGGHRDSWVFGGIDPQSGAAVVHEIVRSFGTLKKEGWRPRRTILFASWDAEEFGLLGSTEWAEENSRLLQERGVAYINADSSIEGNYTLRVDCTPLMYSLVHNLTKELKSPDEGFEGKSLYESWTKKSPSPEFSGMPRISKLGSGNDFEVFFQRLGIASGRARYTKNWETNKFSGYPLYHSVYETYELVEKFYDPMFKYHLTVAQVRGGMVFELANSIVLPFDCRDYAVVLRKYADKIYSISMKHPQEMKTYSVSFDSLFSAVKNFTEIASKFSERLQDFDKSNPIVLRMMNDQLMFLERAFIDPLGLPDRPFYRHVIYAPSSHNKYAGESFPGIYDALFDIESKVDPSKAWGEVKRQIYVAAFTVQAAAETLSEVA

[3] = tested on: PSMA(+) PC3 PIP and PSMA(−) PC3 flu tumor xenografts; test: Biodistribution of 177Lu compounds (Example 5)
[4] = tested on: PSMA+ PC3 PIP tumors; test: Radiopharmaceutical therapy in PC3 PIP flank tumor growth delay model; type: in vivo, NOD/SCID mice; conditions: for Median survival After 8 weeks post-treatment / Tumors above stated relative tumor growth after week 8 post-treatment (Vt/V0) / Mouse death (number of mice): 111 MBq; for Mouse death (number of mice): up to week 8 post-treatment; for Average final body weight: single i.v. dose 111 MBq (3 mCi)
Description: (§1) A pilot treatment study using NOD/SCID mice (n=10 per group) bearing PSMA+ PC3 PIP tumors with a single intravenous dose of 111 MBq (3 mCi) of agents ^177Lu-PSMA-617, ^177Lu-1, ^177Lu-3 and ^177Lu-5 and the control group (with saline treatment) were performed (Table 8). Volume of the all control group mice reached >5-fold of their initial tumor volume within 14 days. Mouse euthanized for treated group within 4 weeks of post-injection was mainly due to sudden body weight loss and not related to tumor growth. […] The difference among treatment groups was statistically significant (P=0.002) by the log-rank test compared to the untreated group. […] After 8-weeks, three mice from each treated group were used for detailed blood analysis and necropsy study. All animals underwent radiotherapy study had normal creatinine (0.3-0.4 mg/dL) and blood urea nitrogen levels. […] Additionally, a significant lowering of platelet for all three treated mice from ^177Lu-PSMA-617 compared control group and other treated groups.
Median survival for the ^177Lu-PSMA-617 was 133 days vs. 234 days for ^177Lu-1.
The remaining treated mice survived tumor-free for 10 months and were evaluated for toxicity.
(§2) Antitumor efficacy studies were performed in PC3 PIP flank tumor growth delay model to evaluate the therapeutic efficacy of a single dose intravenous injection of ^177Lu-L1, ^177Lu-L3, ^177Lu-L5 and ^177Lu-PSMA-617 vs. saline. This was a head-to-head comparison study and same batch of tumor-bearing mice and radioactivity. The study was commenced 14-18 days post-inoculation of the xenografts, when all the mice had tumor volume of about ˜60-85 mm^3 (Table 8). All the living mice were monitored for 8 weeks to monitor the growth delay. Mice body weight and tumor volume were monitored every 3 days throughout the experiment. Endpoint criteria defined by the institute ACUC was weight loss≥15%, a tumor volume>1800 mm^3, active ulceration of the tumor or abnormal behavior indicating pain or unease. After 8-weeks, three mice from each group were submitted for detail necropsy and blood analysis. Mice group treated with ^177Lu-1 and ^177Lu-PSMA-617 were continued to monitor until the endpoint. These definitions were also used for Kaplan-Meier analysis. The probability of reaching 5 times the initial tumor volume was characterized using Kaplan-Meier curves, and comparison was performed using the log-rank test. The formula used for calculation of tumor volume was V=width^2×length/2. Toxicity of the ^177Lu-treatment groups after 8-weeks and in healthy CD-1 (n=3) mice treated with 111 MBq was evaluated by pathologic examination at the Johns Hopkins Pathology Core facility with serum metabolic panel, blood counts, and full necropsy including detailed histopathology of kidneys, salivary glands and lacrimal glands.

[5] = tested on: PSMA(−) PC3 flu cells; test: Cell uptake in PSMA(−) PC3 flu cells; type: cell-based, human
[6] = Blood analysis and necropsy after radiotherapy; type: in vivo, NOD/SCID mice
Description: as §1
Significant and concerning changes were identified in testes, and lacrimal grands primarily (FIG. 25) for all treated groups. […] Parotid glands, usually adjacent to exorbital lacrimal gland, are conspicuously spared and there were mild changes in the group treated ^177Lu-PSMA-617. […] T lymphoblastic lymphoma is accelerated by irradiation and some carcinogens, and is associated with interactions of endogenous retroviruses/retroelements in NOD/SCID mouse strains. […] The cells are large up to 25 μm, with very large nuclei (for a mouse) usually 2-3 nucleoli, and a high mitotic rate. Testis and lacrimal gland degenerative changes indicate that this animal did receive a treatment similar to other treated mice.
as §2

[7] = 111 MBq (3 mCi), after eight weeks, n=3

SMILES: O=C(O)CC[C@H](NC(=O)N[C@@H](CCCCNC(=O)[C@H](Cc1ccc2ccccc2c1)NC(=O)[C@H]1CC[C@H](CNC(=O)CN2CCN(CC(=O)O)CCN(CC(=O)O)CCN(CC(=O)O)CC2)CC1)C(=O)O)C(=O)O [PSMA-617, reference compound]
- Specific Cell Surface Binding [1]: 44.6 ± 1.0 % IA/10^6 cells
- specific internalization [1]: 21.1 ± 0.9 % IA/10^6 cells

SMILES: O=C(O)CC[C@H](NC(=O)N[C@@H](CCCCNC(=O)CCCCNC(=S)Nc1ccc(CC2CN(CC(=O)O)CCN(CC(=O)O)CCN(CC(=O)O)CCN2CC(=O)O)cc1)C(=O)O)C(=O)O (stereo partly drawn) [Ligand L7, (13S,17S)-7,15-dioxo-1-((4-((1,4,7,10-tetrakis(carboxymethyl)-1,4,7,10-tetraazacyclododecan-2-yl)methyl)phenyl)amino)-1-thioxo-2,8,14,16-tetraazanonadecane-13,17,19-tricarboxylic acid]
- Ki [2]: 0.29 to 0.81 nM

SMILES: O=C(O)CC[C@H](NC(=O)N[C@@H](CCCCNC(=O)CCCCCCC(=O)NCCCC[C@@H](NC(=O)[C@@H](Cc1ccccc1)NC(=O)[C@@H](Cc1ccc(O)c(I)c1)NC(=O)CCC(C(=O)O)N1CCN(CC(=O)O)CCN(CC(=O)O)CCN(CC(=O)O)CC1)C(=O)O)C(=O)O)C(=O)O (stereo partly drawn) [PSMA I&T, reference compound]
- Specific Cell Surface Binding ([1]; Table 6): 64.5 ± 2.3 % IA/10^6 cells
- specific internalization ([1]; Table 6): 21.1 ± 0.7 % IA/10^6 cells

SMILES: O=C(O)CC[C@H](NC(=O)N[C@@H](CCCCNC(=O)CCCCCCC(=O)NCCCC[C@H](NC(=O)[C@@H](CCCCNC(=O)CCCc1ccc(I)cc1)NC(=O)CN1CCN(CC(=O)O)CCN(CC(=O)O)CCN(CC(=O)O)CC1)C(=O)O)C(=O)O)C(=O)O [Ligand L14, (3S,7S,26S,29R)-38-(4-iodophenyl)-5,13,20,28,35-pentaoxo-29-(2-(4,7,10-tris(carboxymethyl)-1,4,7,10-tetraazacyclododecan-1-yl)acetamido)-4,6,12,21,27,34-hexaazaoctatriacontane-1,3,7,26-tetracarboxylic acid]
- Specific Cell Surface Binding [1]: 53.0 ± 1.3 % IA/10^6 cells

SMILES: O=C([O-])CN1CCN(CC(=O)[O-])CCN(CC(=O)N[C@H](CCCCNC(=O)CCCc2ccc(I)cc2)C(=O)N[C@@H](CCCCNC(=O)CCCCCCC(=O)NCCCC[C@H](NC(=O)N[C@@H](CCC(=O)O)C(=O)O)C(=O)O)C(=O)O)CCN(CC(=O)[O-])CC1.[177Lu+3] [^177Lu-14]
- Kidney uptake ([3]; 48 h): 17.47±4.18 % ID/g
- blood uptake ([3]; 48 h): 2.48±0.44 % ID/g
- initial kidney uptake ([3]; time not given): 49.49±19.55 % ID/g
- fold clearance of kidney activity ([3]; to 48 h): ~3 fold

SMILES: O=C([O-])CN1CCN(CC(=O)[O-])CCN(CC(=O)NCc2ccc(C(=O)NCCCCCC(=O)N(CCCC[C@H](NC(=O)N[C@@H](CCC(=O)O)C(=O)O)C(=O)O)Cc3ccc(Br)cc3)cc2)CCN(CC(=O)[O-])CC1.[177Lu+3] [^177Lu-L3]
- Cell uptake PC3 PIP ([1]; 1 h): 27.0 ± 1.3 % incubated dose per 1 x 10^6 cells
- PC3 PIP cell Int (internalization) ([1]; 1 h): 21.4 ± 1.4 % incubated dose per 1 x 10^6 cells
- Blockade PC3 PIP ([1]; 1 h): 0.1 ± 0.0 % incubated dose per 1 x 10^6 cells
- total uptake within the PSMA(+) PC3 PIP cells [1]: ~30 % of the incubated dose
- Cell uptake PC3 PIP ([1]; 2 h): 36.5 ± 0.3 % incubated dose per 1 x 10^6 cells
- PC3 PIP, line without name (position of cell internalization) ([1]; 2 h): 23.7 ± 0.2 % incubated dose per 1 x 10^6 cells
- Cell uptake PC3 PIP ([1]; 4 h): 32.6 ± 8.5 % incubated dose per 1 x 10^6 cells
- PC3 PIP cell int (internalization) ([1]; 4 h): 24.9 ± 3.4 % incubated dose per 1 x 10^6 cells
- Cell uptake PC3 PIP ([1]; 24 h): 45.2 ± 1.2 % incubated dose per 1 x 10^6 cells
- PC3 PIP cell int (internalization) ([1]; 24 h): 30.0 ± 0.7 % incubated dose per 1 x 10^6 cells
- Median survival After 8 weeks post-treatment [4]: Not reached
- Tumors above stated relative tumor growth after week 8 post-treatment (Vt/V0) [4]: Two tumor > 4
- Mouse death (number of mice) [4]: Mouse death 3
- Average final body weight [4]: 25.8 ± 2.6 gram
- Cell uptake PC3 flu ([5]; 1 h): 0.1 ± 0.0 % incubated dose per 1 x 10^6 cells
- Cell uptake PC3 flu ([5]; 2 h): 0.1 ± 0.0 % incubated dose per 1 x 10^6 cells
- Cell uptake PC3 flu ([5]; 4 h): 0.1 ± 0.1 % incubated dose per 1 x 10^6 cells
- Cell uptake PC3 flu ([5]; 24 h): 0.1 ± 0.0 % incubated dose per 1 x 10^6 cells

SMILES: O=C([O-])CN1CCN(CC(=O)[O-])CCN(CC(=O)NCc2ccc(C(=O)NCCCCNC(=O)CCCCCCC(=O)N(CCCC[C@H](NC(=O)N[C@@H](CCC(=O)O)C(=O)O)C(=O)O)Cc3ccc(Br)cc3)cc2)CCN(CC(=O)[O-])CC1.[177Lu+3] [^177Lu-L5]
- Albumin [6, 7]: 3 ± 0.4 g/dL
- Blood urea nitrogen [6, 7]: 22.7 ± 3.2 mg/dL
- Hematocrit [6, 7]: 49.7 ± 2.4%
- Hemoglobin [6, 7]: 14.3 ± 1.0 g/dL
- Lymphocytes [6, 7]: 0.4 ± 0.1 K/μL
- Mean Corpuscular Value(MCV) [6, 7]: 54.1 ± 1.4 fL
- Neutrophils [6, 7]: 2.0 ± 1.8 K/μL
- Platelets [6, 7]: 1415.3 ± 88.5 K/μL
- Red blood cells [6, 7]: 9.2 ± 0.7 M/μL
- Total protein [6, 7]: 5.9 ± 0.6 g/dL
- White blood cells [6, 7]: 2.9 ± 1.8 K/μL
- H&E pathology of testis ([6]; 111 MBq, after 8 weeks): most significant changes in testis
- Cell uptake PC3 PIP ([1]; 1 h): 26.6 ± 0.6 % incubated dose per 1 x 10^6 cells
- PC3 PIP cell Int (internalization) ([1]; 1 h): 24.1 ± 0.5 % incubated dose per 1 x 10^6 cells
- Blockade PC3 PIP ([1]; 1 h): 0.0 ± 0.0 % incubated dose per 1 x 10^6 cells
- total uptake within the PSMA(+) PC3 PIP cells [1]: ~30 % of the incubated dose
- Cell uptake PC3 PIP ([1]; 2 h): 29.23 ± 0.8 % incubated dose per 1 x 10^6 cells
- PC3 PIP, line without name (position of cell internalization) ([1]; 2 h): 25.0 ± 0.9 % incubated dose per 1 x 10^6 cells
- Cell uptake PC3 PIP ([1]; 4 h): 34.4 ± 1.2 % incubated dose per 1 x 10^6 cells
- PC3 PIP cell int (internalization) ([1]; 4 h): 26.1 ± 1.0 % incubated dose per 1 x 10^6 cells
- Cell uptake PC3 PIP ([1]; 24 h): 49.8 ± 1.4 % incubated dose per 1 x 10^6 cells
- PC3 PIP cell int (internalization) ([1]; 24 h): 27.9 ± 0.8 % incubated dose per 1 x 10^6 cells
- Median survival After 8 weeks post-treatment [4]: Not reached
- Tumors above stated relative tumor growth after week 8 post-treatment (Vt/V0) [4]: one tumor > 5
- Mouse death (number of mice) [4]: Mouse death 3
- Average final body weight [4]: 27.5 ± 1.9 gram
- PSMA(+) PC3 PIP tumor uptake ([3]; 3 h post-injection): 56.3±18.3 % ID/g
- Cell uptake PC3 flu ([5]; 1 h): 0.2 ± 0.1 % incubated dose per 1 x 10^6 cells
- Cell uptake PC3 flu ([5]; 2 h): 0.0 ± 0.0 % incubated dose per 1 x 10^6 cells
- Cell uptake PC3 flu ([5]; 4 h): 0.1 ± 0.0 % incubated dose per 1 x 10^6 cells
- Cell uptake PC3 flu ([5]; 24 h): 0.1 ± 0.0 % incubated dose per 1 x 10^6 cells

SMILES: O=C([O-])CN1CCN(CC(=O)[O-])CCN(CC(=O)O)C(Cc2ccc(NC(=S)NCCCCC(=O)NCCCC[C@H](NC(=O)N[C@@H](CCC(=O)O)C(=O)O)C(=O)O)cc2)CN(CC(=O)[O-])CC1.[177Lu+3] (stereo partly drawn) [^177Lu-L7]
- PSMA(+) PC3 PIP tumor uptake ([3]; 2 h): 25.4±7.2 % ID/g
- PSMA(+) PC3 PIP tumor uptake ([3]; 24 h post-injection): 7.0±1.5 % ID/g
- PSMA(+) PC3 PIP tumor uptake ([3]; 48 h): 7.0±3.3 % ID/g
- PSMA(+) PC3 PIP tumor uptake ([3]; fourth time point, time not given): 2.3±0.0 % ID/g

SMILES: O=C([O-])CN1CCN(CC(=O)[O-])CCN(CC(=O)NCC2CCC(C(=O)N(CCCCC(NC(=O)NC(CCC(=O)O)C(=O)O)C(=O)O)Cc3ccc(Br)cc3)CC2)CCN(CC(=O)[O-])CC1.[177Lu+3] (stereo not drawn) [^177Lu-L11]
- fold lower uptake compared to 177Lu-L1 [1]: > 1.5 fold

SMILES: O=C(O)CC[C@H](NC(=O)N[C@@H](CCCCN(Cc1ccc(Br)cc1)C(=O)CCCCNC(=O)CN1CCN(CC(=O)O)CCN(CC(=O)O)CCN(CC(=O)O)CC1)C(=O)O)C(=O)O [Ligand L1, (14S,18S)-9-(4-Bromobenzyl)-2,8,16-trioxo-1-(4,7,10-tris(carboxymethyl)-1,4,7,10-tetraazacyclododecan-1-yl)-3,9,15,17-tetraazaicosane-14,18,20-tricarboxylic acid]
- Specific Cell Surface Binding [1]: 36.49 ± 0.50 % IA/10^6 cells
- specific internalization [1]: 23.68 ± 0.16 % IA/10^6 cells
